Source: PMC10714400, “Antimicrobial Peptide–Peptoid Hybrids with and without Membrane Disruption” (ACS Infectious Diseases, 2023)
Converted amounts (≈) assume the structure as drawn. Where a SMILES comes first, the peptide text is derived from it. [ ]: non-standard residue; d: D form. Nleu = CC(C)CNCC(=O)O; Nlys = NCCCCNCC(=O)O

Legend:
[1] = system: E. coli W3110
Description: (§1) Antimicrobial activity was assayed for all the peptide–peptoids against P. aeruginosa PAO1, K. pneumoniae NCTC418, E. coli W3110, A. baumannii ATCC 19606, methicillin-resistant S. aureus COL (MRSA), and for selected peptides on P. aeruginosa PA14 and the polymyxin-B-resistant derivatives PA14 4.13, PA14 4.18, PA14 2P4, as well as the clinical isolates ZEM-1A and ZEM9A, K. pneumoniae OXA-48, S. aureus Newman, Enterobacter cloacae, Stenotrophomonas maltophilia, Burkholderia cenocepacia, and Staphylococus epidermidis. To determine the Minimal Inhibitory Concentration (MIC), the Broth Microdilution method was used.[72] A colony of bacteria was picked and grown in LB medium overnight at 37 °C.
(§2) To each well was finally added 4 μL of the diluted bacterial suspension (see above), corresponding to approximately 5 × 10^5 CFU. For each test, two columns of the plate were kept for sterility control (medium only), growth control (medium with bacterial inoculum, no compound). The positive control, Polymyxin B (starting with a concentration of 16 μg/mL) in MH medium with bacterial inocula, was introduced in the two lines of the plate. The plates were incubated at 37 °C for ca. 18 h under static conditions. Next, 15 μL of 3-(4,5-dimethylthiazol-2-yl)-2,5-diphenyltetrazolium bromide (MTT)[73] (1 mg/mL in sterilized MilliQ deionized water) were added to each well, and the plates were incubated for 20–30 min at room temperature. The minimal inhibitory concentration (MIC) was defined as the lowest concentration of the compound that inhibits the visible growth of the tested bacteria (yellow) with the unaided eye.

[2] = system: PA14 4.18 (pmrB); conditions: […] MH at pH 8.5; for MIC P. aeruginosa PA14 4.18, […] MH at pH 8.5: CSV
Description: as §1, §2

[3] = system: A. baumannii ATCC19606
Description: as §1, §2

[4] = system: K. pneumoniae NCTC418
Description: as §1, §2

[5] = system: PA14 2P4 (pmrB); conditions: CSV; […] MH at pH 8.5
Description: as §1, §2

[6] = system: PA14 4.13 (phoQ); conditions: […] MH at pH 8.5; for MIC P. aeruginosa PA14 4.13, […] MH at pH 8.5: CSV
Description: as §1, §2

[7] = system: S. aureus COL (MRSA)
Description: as §1, §2

[8] = system: P. aeruginosa PAO1
Description: as §1, §2

[9] = system: human red blood cells (hRBC); experiment: Minimum hemolytic concentration (MHC); type: cell-based
Description: We also measured minimal hemolysis concentrations (MHC) on human red blood cells by serial 2-fold dilution as an indication of toxicity against eukaryotic cells (Table 1).

[10] = system: P. aeruginosa PA14; conditions: Table S3; […] MH at pH 8.5, 16-20 hours at 37 °C
Description: as §1
as §2, with “The plates were incubated at 37 °C for ca. 18 h under static conditions.” left out

[11] = system: S. aureus Newman; conditions: Table S3; […] MH at pH 8.5
Description: as §1
as §2, with “The plates were incubated at 37 °C for ca. 18 h under static conditions.” left out

[12] = Circular dichroism, α-helical content; type: physicochemical; conditions: 0.1 mg/mL; for CD %α with 5 mM DPC: 10 mM phosphate buffer pH 7.4, 5 mM DPC; for CD %α with 20% TFE: 10 mM phosphate buffer pH 7.4, 20% TFE

CC(C)CN(CC(N)=O)C(=O)CN(CC(C)C)C(=O)CN(CC(C)C)C(=O)[C@H](CCCCN)NC(=O)CN(CC(C)C)C(=O)CN(CC(C)C)C(=O)[C@H](CCCCN)NC(=O)CN(CC(C)C)C(=O)CN(CC(C)C)C(=O)[C@H](CCCCN)NC(=O)[C@@H](N)CCCCN [EB8, KKllKllKlll] (H-KK[Nleu][Nleu]K[Nleu][Nleu]K[Nleu][Nleu][Nleu]-NH2)
MIC E. coli W3110, […] MH at pH 7.4 ([1]; CSV): 8 ug/mL | MIC E. coli W3110, […] MH at pH 8.5 ([1]; CSV, […] MH at pH 8.5): 3 ug/mL | MIC E. coli W3110, full MH at pH 7.4 ([1]; CSV): >32 ug/mL | MIC E. coli W3110, full MH at pH 8.5 ([1]; CSV): 8 ug/mL | MIC E. coli W3110 […] 8.5 ([1]; Table S2, […] MH, pH 8.5): 2 to 4 µg/mL | MIC E. coli W3110 […] ([1]; diluted MH ([…] MH, pH 8.5) per Table 1 footnote b, 16–20 h at 37 °C): 8 µg/mL (≈ 6.05 µM) | MIC E. coli W3110 Full ([1]; full MH, pH 7.4, 16–20 h at 37 °C): >32 µg/mL | MIC P. aeruginosa PA14 4.18, […] MH at pH 8.5 [2]: 32 ug/mL | MIC A. baumannii ATCC19606, full MH at pH 7.4 ([3]; ATCC19606, 4 h, pH 7.4): >32 ug/mL | MIC A. baumannii ATCC19606, full MH at pH 8.5 ([3]; ATCC19606, 4 h, pH 8.5): 16 ug/mL | MIC K. pneumoniae NCTC418, full MH at pH 7.4 ([4]; NCTC418, 4 h, pH 7.4): >32 ug/mL | MIC K. pneumoniae NCTC418, full MH at pH 8.5 ([4]; NCTC418, 4 h, pH 8.5): 16 ug/mL | MIC P. aeruginosa PA14 2P4, […] MH at pH 8.5 [5]: 32 ug/mL | MIC P. aeruginosa PA14 4.13, […] MH at pH 8.5 [6]: 24 ug/mL | MIC P. aeruginosa PA14 4.13 ([6]; Table S3): 16 to 32 µg/mL | MIC S. aureus COL (MRSA), full MH at pH 7.4 ([7]; COL, 4 h, pH 7.4): >32 ug/mL | MIC S. aureus COL (MRSA), full MH at pH 8.5 ([7]; COL, 4 h, pH 8.5): 16 ug/mL | MIC P. aeruginosa PAO1, full MH at pH 7.4 ([8]; PAO1, 4 h, pH 7.4): >32 ug/mL | MIC P. aeruginosa PAO1, full MH at pH 8.5 ([8]; PAO1, 4 h, pH 8.5): 16 ug/mL | Hemolysis [9]: none of them showed any measurable hemolysis | MHC [9]: >2000 µg/mL

CC(C)C[C@H](NC(=O)[C@H](CCCCN)NC(=O)[C@@H](N)CCCCN)C(=O)N[C@@H](CC(C)C)C(=O)N[C@@H](CCCCN)C(=O)N(CC(=O)N(CC(=O)N(CCCCN)CC(=O)N(CC(=O)N(CC(=O)N(CC(N)=O)CC(C)C)CC(C)C)CC(C)C)CC(C)C)CC(C)C [EB4, KKLLKllklll] (H-KKLLK[Nleu][Nleu][Nlys][Nleu][Nleu][Nleu]-NH2)
MIC P. aeruginosa PA14 [10]: 4 µg/mL (≈ 3.03 µM) | MIC S. aureus Newman [11]: 8 µg/mL (≈ 6.05 µM) | MIC E. coli W3110, […] MH at pH 7.4 ([1]; CSV): 8 ug/mL | MIC E. coli W3110, full MH at pH 7.4 ([1]; CSV): >32 ug/mL | MIC E. coli W3110, full MH at pH 8.5 ([1]; CSV): 8 ug/mL | MIC E. coli W3110 […] 7.4 ([1]; Table S2, […] MH, pH 7.4): 8 µg/mL (≈ 6.05 µM) | MIC E. coli W3110 […] 8.5 ([1]; Table S2, […] MH, pH 8.5): 2 µg/mL (≈ 1.51 µM) | MIC E. coli W3110 Full MH 7.4 ([1]; Table S2, full MH, pH 7.4): > 32 µg/mL | MIC E. coli W3110 Full MH 8.5 ([1]; Table S2, full MH, pH 8.5): 8 µg/mL (≈ 6.05 µM) | MIC P. aeruginosa PA14 4.18, […] MH at pH 8.5 [2]: 24 ug/mL | MIC P. aeruginosa PA14 4.18 ([2]; Table S3): 16 to 32 µg/mL | MIC A. baumannii ATCC19606, full MH at pH 7.4 ([3]; ATCC19606, 4 h, pH 7.4): >32 ug/mL | MIC A. baumannii ATCC19606 […] 7.4 ([3]; Table S2, […] MH, pH 7.4): 32 µg/mL (≈ 24.2 µM) | MIC A. baumannii ATCC19606 […] 8.5 ([3]; Table S2, […] MH, pH 8.5): 16 µg/mL (≈ 12.1 µM) | MIC A. baumannii ATCC19606 Full MH 7.4 ([3]; Table S2, full MH, pH 7.4): > 32 µg/mL | MIC A. baumannii ATCC19606 Full MH 8.5 ([3]; Table S2, full MH, pH 8.5): 16 µg/mL (≈ 12.1 µM) | MIC K. pneumoniae NCTC418, full MH at pH 7.4 ([4]; NCTC418, 4 h, pH 7.4): >32 ug/mL | MIC K. pneumoniae NCTC418 […] 7.4 ([4]; Table S2, […] MH, pH 7.4): > 32 µg/mL | MIC K. pneumoniae NCTC418 […] 8.5 ([4]; Table S2, […] MH, pH 8.5): 32 µg/mL (≈ 24.2 µM) | MIC K. pneumoniae NCTC418 Full MH 7.4 ([4]; Table S2, full MH, pH 7.4): > 32 µg/mL | MIC K. pneumoniae NCTC418 Full MH 8.5 ([4]; Table S2, full MH, pH 8.5): 16 µg/mL (≈ 12.1 µM) | MIC P. aeruginosa PA14 2P4, […] MH at pH 8.5 [5]: 16 ug/mL | MIC P. aeruginosa PA14 4.13, […] MH at pH 8.5 [6]: 8 ug/mL | MIC S. aureus COL (MRSA), full MH at pH 7.4 ([7]; COL, 4 h, pH 7.4): >32 ug/mL | MIC S. aureus COL (MRSA) […] 7.4 ([7]; Table S2, […] MH, pH 7.4): 32 µg/mL (≈ 24.2 µM) | MIC S. aureus COL (MRSA) Full MH 7.4 ([7]; Table S2, full MH, pH 7.4): > 32 µg/mL | MIC S. aureus COL (MRSA) Full MH 8.5 ([7]; Table S2, full MH, pH 8.5): 16 µg/mL (≈ 12.1 µM) | MIC P. aeruginosa PAO1, full MH at pH 7.4 ([8]; PAO1, 4 h, pH 7.4): >32 ug/mL | MIC P. aeruginosa PAO1 […] 8.5 ([8]; Table S2, […] MH, pH 8.5): 4 µg/mL (≈ 3.03 µM) | MIC P. aeruginosa PAO1 Full MH 7.4 ([8]; Table S2, full MH, pH 7.4): > 32 µg/mL | Hemolysis [9]: none of them showed any measurable hemolysis | MHC [9]: >2000 µg/mL | CD %α with 5 mM DPC ([12]; DichroWeb, Contin-LL): 9% | CD %α with 20% TFE ([12]; DichroWeb, Contin-LL): 11% | CD %α with 5 mM DPC ([12]; Table S2): 9% | CD %α with 20% TFE ([12]; Table S2): 11%
